3 compounds from US7285642B2, “Composition and method for modulating dendritic cell-T cell interaction” (Katholieke Universiteit Nijmegen, priority 2000, dated 2007) can be followed below.

The subject of one assay is adhesion of DC to ICAM-3. As to the kind of experiment: Fluorescent beads adhesion assay: adhesion of DC to ICAM-3Fc beads. Particulars: 5 mM. The format is cell-based, human.
Assay [1] addresses T1, DC-SIGN (Homo sapiens, UniProt Q9NNX6).
T1 construct: expressed in transfected cells; host or cells: COS7 cells, transient transfection with pRc/CMV-DC-SIGN (DEAE dextran)
T1 sequence (Q9NNX6 1-404): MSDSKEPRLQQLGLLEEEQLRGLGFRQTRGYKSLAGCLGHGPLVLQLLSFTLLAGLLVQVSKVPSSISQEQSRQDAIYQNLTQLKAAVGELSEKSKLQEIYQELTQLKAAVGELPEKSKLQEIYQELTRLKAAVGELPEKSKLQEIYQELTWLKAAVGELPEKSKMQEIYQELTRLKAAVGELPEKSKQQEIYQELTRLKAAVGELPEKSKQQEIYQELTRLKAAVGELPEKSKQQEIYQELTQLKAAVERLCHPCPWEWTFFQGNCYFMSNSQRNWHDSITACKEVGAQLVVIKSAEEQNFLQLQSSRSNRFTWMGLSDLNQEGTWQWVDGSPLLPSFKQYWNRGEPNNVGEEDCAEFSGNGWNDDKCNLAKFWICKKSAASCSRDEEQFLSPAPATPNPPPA
As to the kind of experiment: Adhesion of COS7-DC-SIGN cells to ICAM-3 beads. The format is cell-based. Particulars: 5 mM. From the text:
RT-PCR analysis with primers based on the gp120-binding C-type lectin sequence, on RNA isolated from DC yielded a PCR product of the expected length of 1237 nt. The DC-specific PCR product was cloned and sequencing confirmed 100% identity with the human gp120-binding lectin (FIG. 3B). Flowcytometric analysis of COS7 cells, transfected with the cDNA encoding the placenta gp120-binding C-type lectin, unequivocally proves that the gp120 binding C-type lectin is indeed identical to DC-SIGN (FIG. 4A). […] COS7 cells were transfected and the adhesion was determined as described in FIG. 1A, respectively. Adhesion of COS7-DC-SIGN cells to ICAM-3 was measured in the presence of EGTA (5 mM) and blocking antibodies against DC-SIGN (AZN-D1), ICAM-3 (CBR-IC3/1, CBR-IC3/2) and β2 integrinds (AZN-L19). A representative experiment out of 3 is shown (SD<5%). About 30% of the transfected COS7 cells are stained with anti-DC-SIGN-antibody and therefore express DC-SIGN. […]
Carboxylate-modified TransFluorSpheres (488/645 nm, 1.0 μm; Molecular Probes, Eugene, Oreg.) were coated with ICAM-1 Fc and ICAM-3 Fc as described previously (Geijtenbeek et al., 1999 submitted). […] Adhesion was determined by measuring the percentage of cells, which have bound fluorescent beads, by flowcytometry using the FACScan (Becton and Dickinson & Co., Oxnard, Calif.).

Assay [2] concerns the target T1, DC-SIGN. As to the kind of experiment: Binding of DC-SIGN to ICAM-2 and ICAM-3 expressing K562 cells (FIG. 8). The format is cell-based.

Method for adhesion of DC to ICAM-3: Exploiting a novel flowcytrometric adhesion assay involving ICAM-3-Fc chimera coated fluorescent beads (Geijtenbeek et al.), the capacity of DC, resting peripheral blood lymphocytes (PBL) and monocytes to bind to this integrin ligand was tested. […] Freshly isolated PBL, monocytes and DC were incubated for 30 min. at 37° C. with either ICAM-1Fc or ICAM-3Fc fluorescent beads. After washing, the percentage of cells that bound beads was determined by flowcytometry. • 1B: Adhesion of leukocytes to ICAM-3 after activation of β2-integrins. Binding of fluorescent ICAM-3Fc beads was measured after 30 min. at 37° C. in the presence of either PMA 980 nM) or the activating anti-β2-integrin antibody KIM185 (10 μg/ml). Inhibition of the LFA-1 specific adhesion after PMA activation was determined in the presence of the blocking anti-LFA-1 antibody NKI-L15 (20 μg/ml). • 1C: Adhesion of DC to ICAM-3 in the presence of blocking antibodies (20 μg/ml) against β2-integrins (NKI-L19), β1-integrin (AIIB2), ICAM-3 (CBR-IC3/1, CBR-IC3/2) or in the presence of EDTA (5 mM) or EGTA (5 mM). The adhesion was determined as described in FIG. 1A.
DC were cultured from monocytes in the presence of GM-CSF and IL-4. […] Adhesion was determined as described in FIG. 1A. […]

Consider `O=C(O)CN(CCN(CC(=O)O)CC(=O)O)CC(=O)O` [EDTA], for which the “Inhibition of adhesion of DC to ICAM-3Fc fluorescent beads” value in the assay on adhesion of DC to ICAM-3 is on record as “completely blocked”.
With `O=C(O)CN(CCOCCOCCN(CC(=O)O)CC(=O)O)CC(=O)O` [EGTA], the “Inhibition of adhesion of COS7-DC-SIGN cells to ICAM-3” value at DC-SIGN [1] is given as “blocks adhesion completely”. The “Inhibition of adhesion of DC to ICAM-3Fc fluorescent beads” value in the assay on adhesion of DC to ICAM-3 is “completely blocked”.
For mannan, the “Inhibition of DC-SIGN binding to K562 cells expressing ICAM-2 or ICAM-3” value at DC-SIGN [2] is given as “can be inhibited”.
